Results taken from ChEMBL document CHEMBL3885861, “Open TG-GATES”.

Species: Rattus norvegicus
Assay: Open TG-GATES - Regimen: Single
Format: toxicity, organism-based, Sprague-Dawley
Design: regimen Single, gender Male, age 6 weeks
Conditions: in vivo, po, 0 mg/kg, route gavage, dose level Control; for APTT / Bas / Eos / Fbg / Hb / Ht / Lym / MCH / MCHC / MCV / Mono / Neu / PT / Plat / RBC / Ret / WBC: tissue Blood; for KIDNEY_L / KIDNEY_R / KIDNEY_TOTAL: tissue Kidney; for LIVER: tissue Liver; for A/G / ALP / ALT / AST / BUN / CRE / Ca / Cl / DBIL / GLC / IP / K / LDH / Na / PL / RALB / TBIL / TC / TG / TP / gamma-GTP: tissue Plasma

O=NN(CCCl)C(=O)NC1CCCCC1 [LOMUSTINE]
TERMINAL_BW (3 h): 205.6 g | APTT (3 h): 16.5 s | Bas (3 h): 0% | Eos (3 h): 0.6% | Fbg (3 h): 207.8 mg/dL | Hb (3 h): 13 g/dL | Ht (3 h): 39.5% | Lym (3 h): 82% | MCH (3 h): 21.7 pg | MCHC (3 h): 32.9% | MCV (3 h): 66 fL | Mono (3 h): 6.4% | Neu (3 h): 11.2% | PT (3 h): 11 s | Plat (3 h): 100.4 x10_4/uL | RBC (3 h): 599.2 x10_4/ul | Ret (3 h): 8.5% | WBC (3 h): 134.2 x10_2/uL | KIDNEY_L (3 h): 0.9 g | KIDNEY_R (3 h): 0.9 g | KIDNEY_TOTAL (3 h): 1.9 g | LIVER (3 h): 10 g | A/G (3 h): 2 | ALP (3 h): 881.4 IU/L | ALT (3 h): 36.4 IU/L | AST (3 h): 66.4 IU/L | BUN (3 h): 14.6 mg/dL | CRE (3 h): 0.6 mg/dL | Ca (3 h): 11.3 mg/dL | Cl (3 h): 106.4 meq/L | DBIL (3 h): 0.072 mg/dL | GLC (3 h): 187 mg/dL | IP (3 h): 9.5 mg/dL | K (3 h): 5 meq/L | LDH (3 h): 89.6 IU/L | Na (3 h): 139.8 meq/L | PL (3 h): 134.4 mg/dL | RALB (3 h): 3.7 g/dL | TBIL (3 h): 0.3 mg/dL | TC (3 h): 76.4 mg/dL | TG (3 h): 50.2 mg/dL | TP (3 h): 5.6 g/dL | gamma-GTP (3 h): 1.4 IU/L | TERMINAL_BW (6 h): 200.9 g | APTT (6 h): 17.4 s | Bas (6 h): 0% | Eos (6 h): 0.6% | Fbg (6 h): 218.2 mg/dL | Hb (6 h): 13.6 g/dL | Ht (6 h): 41.3% | Lym (6 h): 72% | MCH (6 h): 22 pg | MCHC (6 h): 32.9% | MCV (6 h): 66.7 fL | Mono (6 h): 6.6% | Neu (6 h): 20.6% | PT (6 h): 12.2 s | Plat (6 h): 106.2 x10_4/uL | RBC (6 h): 619.2 x10_4/ul | Ret (6 h): 8.9% | WBC (6 h): 71.6 x10_2/uL | KIDNEY_L (6 h): 1 g | KIDNEY_R (6 h): 1 g | KIDNEY_TOTAL (6 h): 2 g | LIVER (6 h): 9.4 g | A/G (6 h): 2 | ALP (6 h): 849.6 IU/L | ALT (6 h): 28.2 IU/L | AST (6 h): 66 IU/L | BUN (6 h): 10.2 mg/dL | CRE (6 h): 0.5 mg/dL | Ca (6 h): 11.1 mg/dL | Cl (6 h): 103.4 meq/L | DBIL (6 h): 0.01 mg/dL | GLC (6 h): 189.6 mg/dL | IP (6 h): 11.2 mg/dL | K (6 h): 5.6 meq/L | LDH (6 h): 116.4 IU/L | Na (6 h): 141.2 meq/L | PL (6 h): 141.6 mg/dL | RALB (6 h): 3.7 g/dL | TBIL (6 h): 0.3 mg/dL | TC (6 h): 78.8 mg/dL | TG (6 h): 50.6 mg/dL | TP (6 h): 5.7 g/dL | gamma-GTP (6 h): 1 IU/L | TERMINAL_BW (9 h): 199.9 g | APTT (9 h): 16.9 s | Bas (9 h): 0% | Eos (9 h): 0.8% | Fbg (9 h): 213.2 mg/dL | Hb (9 h): 13.1 g/dL | Ht (9 h): 40.2% | Lym (9 h): 79.4% | MCH (9 h): 21.7 pg | MCHC (9 h): 32.6% | MCV (9 h): 66.4 fL | Mono (9 h): 6.2% | Neu (9 h): 14% | PT (9 h): 12.5 s | Plat (9 h): 107.9 x10_4/uL | RBC (9 h): 606.2 x10_4/ul | Ret (9 h): 8.8% | WBC (9 h): 91.5 x10_2/uL | KIDNEY_L (9 h): 0.9 g | KIDNEY_R (9 h): 0.9 g | KIDNEY_TOTAL (9 h): 1.8 g | LIVER (9 h): 8.5 g | A/G (9 h): 2.4 | ALP (9 h): 985 IU/L | ALT (9 h): 28 IU/L | AST (9 h): 55.8 IU/L | BUN (9 h): 10.8 mg/dL | CRE (9 h): 0.5 mg/dL | Ca (9 h): 10.8 mg/dL | Cl (9 h): 105.6 meq/L | DBIL (9 h): 0.072 mg/dL | GLC (9 h): 193.6 mg/dL | IP (9 h): 11 mg/dL | K (9 h): 4.8 meq/L | LDH (9 h): 101 IU/L | Na (9 h): 139 meq/L | PL (9 h): 120.8 mg/dL | RALB (9 h): 3.9 g/dL | TBIL (9 h): 0.3 mg/dL | TC (9 h): 67.2 mg/dL | TG (9 h): 43.2 mg/dL | TP (9 h): 5.6 g/dL | gamma-GTP (9 h): 1.4 IU/L | TERMINAL_BW (24 h): 218.2 g | APTT (24 h): 16 s | Bas (24 h): 0% | Eos (24 h): 0.4% | Fbg (24 h): 225 mg/dL | Hb (24 h): 13 g/dL | Ht (24 h): 38.8% | Lym (24 h): 80.4% | MCH (24 h): 22.5 pg | MCHC (24 h): 33.5% | MCV (24 h): 67.2 fL | Mono (24 h): 6.4% | Neu (24 h): 12.4% | PT (24 h): 11.9 s | Plat (24 h): 100.3 x10_4/uL | RBC (24 h): 578.2 x10_4/ul | Ret (24 h): 8.8% | WBC (24 h): 130.7 x10_2/uL | KIDNEY_L (24 h): 1 g | KIDNEY_R (24 h): 1 g | KIDNEY_TOTAL (24 h): 2 g | LIVER (24 h): 11.5 g | A/G (24 h): 2.1 | ALP (24 h): 991.8 IU/L | ALT (24 h): 35 IU/L | AST (24 h): 63.6 IU/L | BUN (24 h): 19.2 mg/dL | CRE (24 h): 0.5 mg/dL | Ca (24 h): 11.3 mg/dL | Cl (24 h): 104.8 meq/L | DBIL (24 h): 0.018 mg/dL | GLC (24 h): 203.8 mg/dL | IP (24 h): 8.4 mg/dL | K (24 h): 5.4 meq/L | LDH (24 h): 130.2 IU/L | Na (24 h): 138.2 meq/L | PL (24 h): 146.6 mg/dL | RALB (24 h): 3.9 g/dL | TBIL (24 h): 0.4 mg/dL | TC (24 h): 79.8 mg/dL | TG (24 h): 96.6 mg/dL | TP (24 h): 5.8 g/dL | gamma-GTP (24 h): 1.4 IU/L
